Measured values from patent publication US20250312469A1 (CANGET BIOTEKPHARMA, priority 2024, published 2025).
Where “and” joins values, the source holds several entries; their conditions need not be identical. Identical values can stand only once.

Experiments:
[1] = tested on: L5178Y TK+/− mouse lymphoma cells; test: Mouse Lymphoma Assay (MLA); details: for Avg. ACE / Avg. MF / Avg. RTG / Avg. SG: 4 h summary
Protocol: The cells were prepared in Fischer's or RPMI media supplemented with 10% heat-inactivated horse serum, penicillin-streptomycin, Lglutamine, sodium pyruvate and Pluronic F68. In the initial assay, prior to use in the test, the culture was purged of preexisting TK−/− mutations by exposure to THMG treated medium for 1 day, followed by a transfer to THG medium for 1 to 2 days. This was performed 5 to 8 days prior to testing. In the expanded assay a vial of frozen cells was thawed and used within 5 to 8 days of growth. No washing was needed because the cells were purged of preexisting TK−/− mutations by exposure to THMG treated medium for 1 day and then THG medium for 1 day prior to freezing. […] Colonies were counted using an automated colony counter or manually. After 4 or 24 hours of exposure, the cells were grown for recovery and expression for approximately 48 hours before plated in TFT cloning media. A second set of plates were prepared without TFT to assess viability of cells following treatment. […] Colonies observed on the TFT plate were defined as small or large colonies. […] (3) Of note, the metabolic activation system in this assay consisted of a rat liver homogenate (S-9 microsomal fraction), which was delivered to the test system in the presence of a core mix consisting of NADP and cofactors for NADPH-supported oxidation. The S9 was prepared using the following recipe (per treatment tube); 1 mL of 20 mg/mL S9, 32 mg of NADP, 60 mg of isocitric acid, 40 μL of calcium chloride (CaCl2) and 3.0 mL of cell cultural media. All treatments were performed in duplicate. The treatment tubes were placed in a CO2 incubator at 37±1° C. with continuous agitation.

DDX5 = DDX5 (Homo sapiens, UniProt P17844); test: Immunoprecipitation/Western blot of DDX5 in Mia Paca-2 and SW620 cells; assay type: cell-based; design: endogenous in cells; Mia Paca-2 and SW620 (IP/Western)
Sequence of DDX5 (P17844 whole entry): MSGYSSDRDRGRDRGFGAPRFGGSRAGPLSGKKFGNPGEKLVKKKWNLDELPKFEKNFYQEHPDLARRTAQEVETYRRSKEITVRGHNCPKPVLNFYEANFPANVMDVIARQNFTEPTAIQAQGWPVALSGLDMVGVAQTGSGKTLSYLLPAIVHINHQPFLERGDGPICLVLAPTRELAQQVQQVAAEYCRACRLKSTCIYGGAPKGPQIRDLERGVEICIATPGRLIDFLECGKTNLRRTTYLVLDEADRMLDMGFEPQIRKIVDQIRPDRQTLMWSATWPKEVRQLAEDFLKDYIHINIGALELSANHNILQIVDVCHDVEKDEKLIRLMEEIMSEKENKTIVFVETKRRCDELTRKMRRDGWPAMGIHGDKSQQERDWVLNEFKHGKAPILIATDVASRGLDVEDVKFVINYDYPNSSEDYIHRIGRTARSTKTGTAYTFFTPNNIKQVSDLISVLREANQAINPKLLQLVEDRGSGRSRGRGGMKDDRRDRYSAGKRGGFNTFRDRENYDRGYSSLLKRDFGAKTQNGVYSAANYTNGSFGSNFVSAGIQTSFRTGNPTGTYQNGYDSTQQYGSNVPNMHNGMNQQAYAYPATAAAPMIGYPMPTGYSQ
Protocol: Up to 10^7 cells for each time point/test were harvested with a scraper in cold PBS buffers and collected by centrifugation at 1000g×5 min and washed with cold PBS once. Cell pellets were lysed in 1 mL cold RIPA lysis buffer containing proteinase inhibitors (refer to Western blots). The cell lysates were precleared with centrifuging 14,000 rpm for 15 min. The resulting supernatants were transferred to a new 1.5 ml tube and incubated with up to 3 μg either DDX5 antibodies or normal IgG antibodies for 1 h at 4° C., followed by incubation with 20-40 μL 50% protein A/G-Agarose slurry overnight at 4° C. on a rocker platform. […]
For frozen prostate cancer tissue specimens and their adjacent non-tumor tissues (if any) obtained from Roswell Park pathology network, 30-50 mg of each tissue in a 1.5 Eppendorf tube containing 500 μL of 2×SDS lysis buffer containing Tris pH 6.8+4% SDS+10% Glycerol were homogenized through ultrasound treatment for 10-15 second per time with 3-6 times until tumor tissue was lysed. […] Proteins of interest were detected using Western Lightning ECL-Plus (Perkin Elmer, Waltham, MA) and visualized by various times (3-120 seconds) of exposure. Actin, tubulin and/or GAPDH were detected as the internal control to normalize total protein loading for each sample.

`CCC1(O)C(=O)OCc2c1cc1n(c2=O)Cc2cc3cc4c(cc3nc2-1)OCO4` (stereo not shown) [FL118] was tested. Which “concentrations considered unable to induce mutation” value (“concentrations considered unable” for short) ([1]; 4-hour +S9) did it give?
Its value is ≤ 320 nM.

What about the “concentrations considered positive (mutagenic/clastogenic)” value ([1]; 4-hour -S9) of the same compound?
Its value is > 100 nM.

What about the “concentrations considered unable” value ([1]; 4-hour -S9) of the same compound?
The value was ≤ 32 nM.

And the “Average SG” value ([1]; 4 h, +S9, 0.1 uM)?
Its value is 12.9.

What about the “Day 1 Growth Cell Conc.” value ([1]; 4 h, +S9, 0.1 uM) of the same compound?
Its value is 6.71E+05 Cell/mL and 7.82E+05 Cell/mL.

What about the “Day 2 Growth Cell Conc.” value ([1]; 4 h, +S9, 0.1 uM) of the same compound?
The value was 1.55E+06 Cell/mL and 1.64E+06 Cell/mL.

And the “Suspension Growth (SG)” value ([1]; 4 h, +S9, 0.1 uM)?
Its value is 11.4 and 14.3.

And the “Average SG” value ([1]; 4 h, +S9, 1 uM)?
The value was 10.7.

And the “Day 1 Growth Cell Conc.” value ([1]; 4 h, +S9, 1 uM)?
Its value is 7.55E+05 Cell/mL and 6.56E+05 Cell/mL.

And the “Day 2 Growth Cell Conc.” value ([1]; 4 h, +S9, 1 uM)?
Its value is 1.27E+06 Cell/mL and 1.45E+06 Cell/mL.

What about the “Suspension Growth (SG)” value ([1]; 4 h, +S9, 1 uM) of the same compound?
The value was 10.5 and 10.8.

And the “concentrations considered positive (mutagenic/clastogenic)” value ([1]; 4 hour +S9)?
Its value is > 1000 nM.

What about the “Avg. ACE” value ([1]; +S9, 0.1 uM) of the same compound?
The value was 82.5%.

What about the “Avg. MF” value ([1]; +S9, 0.1 uM) of the same compound?
Its value is 71 ×10^−6.

What about the “Avg. RTG” value ([1]; +S9, 0.1 uM) of the same compound?
Its value is 98.8%.

And the “Avg. SG” value ([1]; +S9, 0.1 uM)?
Its value is 12.9.

What about the “Avg. ACE” value ([1]; +S9, 1 uM) of the same compound?
The value was 62.3%.

And the “Avg. MF” value ([1]; +S9, 1 uM)?
Its value is 231 ×10^−6.

What about the “Avg. RTG” value ([1]; +S9, 1 uM) of the same compound?
The value was 81.5%.

And the “Avg. SG” value ([1]; +S9, 1 uM)?
The value was 10.7.

What about the “Average SG” value ([1]; 24 h, 0.001 uM) of the same compound?
The value was 66.2.

What about the “Suspension Growth (SG)” value ([1]; 24 h, 0.001 uM) of the same compound?
Its value is 55.8 and 65.5.

And the “Average SG” value ([1]; 24 h, 0.1 uM)?
The value was 29.1.

And the “Suspension Growth (SG)” value ([1]; 24 h, 0.1 uM)?
Its value is 29.0 and 29.1.

And the “concentrations considered positive (mutagenic/clastogenic)” value ([1]; 24 hour -S9)?
The value was ≥ 100 nM.

And the “concentrations considered unable” value ([1]; 24 hour -S9)?
The value was ≤ 32 nM.

What about the “DDX5 phosphorylation on tyrosine” value (DDX5; 6h) of the same compound?
Its value is “eliminates DDX5 phosphorylation”.

And the DDX5 protein (DDX5; 24h)?
The DDX5 protein was “inhibits DDX5 proteins”.
